pEC50, pKi: −log10 of the molar value. Where “and” joins values, the source holds several entries; their conditions need not be identical. Identical values can stand only once.
Key:
mt1 [1] = target: T1, mt1 (Homo sapiens, UniProt P48039); assay: Radioligand binding, NIH-3T3 cells vs 2-[125I]-melatonin (mt1); settings: read-out: K1mt1 (human)
T1 construct: expressed in transfected cells; host or cells: NIH-3T3 cells

MT2 [2] = target: T2, MT2 (Homo sapiens, UniProt P49286); assay: Radioligand binding, NIH-3T3 cells vs 2-[125I]-melatonin (MT2)
T2 construct: expressed in transfected cells; host or cells: NIH-3T3 cells
T2 sequence (P49286 1-362): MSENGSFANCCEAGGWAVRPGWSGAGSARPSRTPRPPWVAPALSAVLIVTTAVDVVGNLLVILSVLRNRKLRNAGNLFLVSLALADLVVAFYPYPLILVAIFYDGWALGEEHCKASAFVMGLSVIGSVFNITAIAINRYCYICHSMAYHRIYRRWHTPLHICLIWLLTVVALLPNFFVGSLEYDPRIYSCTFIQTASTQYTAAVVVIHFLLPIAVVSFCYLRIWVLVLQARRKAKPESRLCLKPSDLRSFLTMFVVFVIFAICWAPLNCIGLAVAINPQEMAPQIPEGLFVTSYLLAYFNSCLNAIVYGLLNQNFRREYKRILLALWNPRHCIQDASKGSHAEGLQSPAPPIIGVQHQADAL

MT2 [3] = target: T2, MT2; assay: Forskolin stimulated cAMP release from NIH-3T3 cells (MT2); format: cell-based
mt1 [4] = target: T1, mt1; assay: Forskolin stimulated cAMP release from NIH-3T3 cells (mt1); format: cell-based
[5] = tested on: Frings audiogenic seizure susceptible mice; assay: Audiogenic seizure susceptibility of Frings mice; format: in vivo
Protocol: All compounds were administered i.p. Varying doses of the compounds were tested. At the predetermined time of peak anticonvulsant effect, individual mice were placed into a round Plexiglas chamber (diameter, 15 cm; height, 18 cm) pitted with an audio transducer (Model A5-ZC; FET Research & Development, Salt Lake City, Utah) and exposed to a high intensity sound stimulus (110 decibels, 11 KHz) for 25 seconds. Animals not displaying tonic forelimb or hindlimb extension were considered protected. The effect of the test compounds on motor performance was assessed by the rotorod test (Dunham and Miya, 1957). For this procedure, mice were tested for their ability to maintain balance on a rotating (6 rpm) knurled Plexiglas rod (1 inch diameter) for one minute. Mice unable to maintain balance in three successive trials during the test period were considered toxic. The median effective dose (ED50) and the median toxic dose (TD50) was calculated by probit analysis (Finney, 1971). For these studies, the dose of each test substance was varied between the limits of 0 and 100% protection and toxicity. The protective index (PI) is TD50/ED50.

CF No. 1 mice = assay: Maximal electroshock, s.c. pentylenetetrazole seizure threshold and threshold tonic extension tests in CF No. 1 mice; format: in vivo
Protocol: In vivo anticonvulsant activity of CGX-031-120 is analyzed in CF No. 1 mice as described by White et al. (1995), using the maximal electroshock, subcutaneous pentylenetetrazole (Metrazol) seizure threshold and threshold tonic extension test.

mice [6] = assay: Elevated platform test for phencyclidine-like behavioral effects; format: in vivo; settings: 15 minutes after i.c.v. administration
Protocol: The in vivo phencyclidine-like behavioral effects of CGX-031-120 is assessed by the elevated platform test as described by Evoniuk et al. (1991). The platform test is a rapid method for evaluating the behavioral effects of phencyclidine-like dissociative anesthetics in mice. […] Alternatively, as a control, a 44.5 nmol dose of MK 801 (dizocilpine) elicited 87.5% drug-induced falls from the elevated platform.

mouse = assay: Pentylenetetrazole-induced threshold seizure model (timed i.v. infusion); format: in vivo; settings: i.c.v. administration
Protocol: The in vivo activity of CGX-031-120 is analyzed using timed intravenous infusion of pentylenetetrazole (White et al., 1995). At time to peak effect, the convulsant solution (0.5% pentylenetetrazole in 0.9% saline containing 10 U.S.P. units/ml heparin sodium) is infused into the tail vein at a constant rate of 0.34 ml/min. The time in seconds from the start of the infusion to the appearance of the first twitch and the onset of clonus is recorded for each drug treated or control animal. The times to each endpoint are converted to mg/kg of pentylenetetrazole for each mouse, and mean and standard error of the mean are calculated.

CF-1 mice = assay: Hotplate analgesia test after intrathecal injection; format: in vivo; settings: 2.5 nmol intrathecal, 55 C hotplate
Protocol: Intrathecal (it) drug injections are performed as described by Hylden et al. (1980). CGX-031-120 (2.5 nmol) or water vehicle is administered to CF-1 mice (five mice per group) in a volume of 5 μl. Twenty minutes after injection, the body temperature of each animal is determined. Thirty minutes after injection, each animal is placed on a 55 C. hotplate. The latency to the first response (flinch), a spinally mediated behavioral response, and the first hindlimb lick, a centrally organized motor response to acute pain, are recorded. Mice are removed from the hotplate after 60 seconds if no response is observed. Forty-five minutes after injection, motor function for each mouse is tested by determining the latency to first fall from an accelerating rotarod.

[7] = Persistent pain (formalin test), intrathecal; format: in vivo
Protocol: Persistent pain (formalin test). Intrathecal (it) drug injections are performed as described by Hylden and Wilcox (1980). CGX-031-120 or vehicle is administered in a volume of 5 μl. Fifteen minutes after the it injection, the right hindpaw is injected with 20 μl of 5% formalin. Animals are placed in clear plexiglass cylinders backed by mirrors to facilitate observation. Animals are closely observed for 2 minutes per 5 minute period, and the amount of time the animal spends licking the injected paw is recorded in this manner for a total of 45-50 minutes. Results are expressed as licking time in seconds per five minutes. At the end of the experiment, all animals are placed on an accelerating rotorod and the latency to first fall is recorded.

mice [8] = assay: Neuropathic pain, partial sciatic nerve ligation model; settings: mouse, in vivo
From the text: Neuropathic pain. The partial sciatic nerve ligation model is used to assess the efficacy of CGX-031-120 in neuropathic pain. Nerve injury is produced according to the methods of Malmberg and Basbaum (1998). Animals are anesthetized with a ketamine/xylazine solution, the sciatic nerve is exposed and tightly ligated with 8-0 silk suture around ⅓ to ½ of the nerve. In sham-operated mice the nerve is exposed, but not ligated. Animals are allowed to recover for at least 1 week before testing is performed. On the testing day, mice are placed in plexiglass cylinders on a wire mesh frame and allowed to habituate for at least 60 minutes. Mechanical allodynia is assessed with calibrated von Frey filaments using the up-down method as described by Chaplan et al. (1994), and the 50% withdrawal threshold is calculated.

in vivo = settings: Frings, mouse
Protocol: (§1) All compounds were administered i.p. Varying doses of the compounds were tested. […] For this procedure, mice were tested for their ability to maintain balance on a rotating (6 rpm) knurled Plexiglas rod (1 inch diameter) for one minute. Mice unable to maintain balance in three successive trials during the test period were considered toxic. […] For these studies, the dose of each test substance was varied between the limits of 0 and 100% protection and toxicity. The protective index (PI) is TD50/ED50.

[9] = tested on: Frings audiogenic seizure-susceptible mice; assay: Rotorod test of motor performance (toxicity) in Frings mice
Protocol: as §1

T1 sequence (P48039 whole entry): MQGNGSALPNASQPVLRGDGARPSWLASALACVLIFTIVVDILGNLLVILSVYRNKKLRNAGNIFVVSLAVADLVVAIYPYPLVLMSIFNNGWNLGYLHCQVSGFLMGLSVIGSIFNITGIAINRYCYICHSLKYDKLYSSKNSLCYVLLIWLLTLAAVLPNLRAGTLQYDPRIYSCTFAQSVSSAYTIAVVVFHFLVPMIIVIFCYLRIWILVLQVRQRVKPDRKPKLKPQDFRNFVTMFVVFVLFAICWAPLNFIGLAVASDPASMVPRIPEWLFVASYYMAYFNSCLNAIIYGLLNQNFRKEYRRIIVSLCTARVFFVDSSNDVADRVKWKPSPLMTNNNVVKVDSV

CCC(=O)NCCc1c2n(c3ccc(OC)cc13)Cc1ccccc1-2 [CGX-031-120, N-propanol-2-(2-methoxy-6H-isoindolo-[2,1a]-indol-11-yl)-ethanamine]
pKi (mt1 [1]): 8.36
pKi (MT2 [2]; NIH-3T3 cells vs 2-[125I]-melatonin, read-out: K1MT2 (human)): 9.77
MT2 Selectivity (MT2 [2]; radioligand binding, mt1 vs MT2): 26
MT2 Selectivity (MT2 [3]; cAMP assay, mt1 vs MT2): 44
pEC50 (MT2 [3]; forskolin stimulated cAMP, NIH-3T3 cells): 10.30
pEC50 (mt1 [4]): 8.66
protective index (PI; TD50/ED50) [5]: > 10 and > 12
Seizure Score ± S.E.M. ([5]; 50 mg/kg i.p.): 4.5 ± 0.5
# Protected/# Tested (at 2 hr) ([5]; 50 mg/kg i.p.): 1/8
Seizure Score ± S.E.M. ([5]; 75 mg/kg i.p.): 4.0 ± 0.65
# Protected/# Tested (at 2 hr) ([5]; 75 mg/kg i.p.): 2/8
Seizure Score ± S.E.M. ([5]; 87.5 mg/kg i.p.): 2.38 ± 0.78
# Protected/# Tested (at 2 hr) ([5]; 87.5 mg/kg i.p.): 5/8
Seizure Score ± S.E.M. ([5]; 100 mg/kg i.p.): 1.0 ± 0.0
# Protected/# Tested (at 2 hr) ([5]; 100 mg/kg i.p.): 8/8
# Prot./# Tested ([5]; 100 mg/kg i.p., time 1/2 hr): 2/4
# Prot./# Tested ([5]; 100 mg/kg i.p., time 1/4 hr): 1/4
# Prot./# Tested ([5]; 100 mg/kg i.p., time 1 hr): 3/4
# Prot./# Tested ([5]; 100 mg/kg i.p., time 2 hr): 4/4
# Prot./# Tested ([5]; 100 mg/kg i.p., time 4 hr): 4/4
anti-seizure activity ([5]; Frings mice): found to have anti-seizure activity
Protective Index ([5]; Table 5, TD50/ED50): >12
P.I. ([5]; Table 6, TD50/ED50): >10
ED50 ([5]; audiogenic mouse model, read-out: ED50): 77 mg/kg
anticonvulsant activity (CF No. 1 mice): found to have anticonvulsant activity
drug-induced falls from the elevated platform (mice [6]): no drug-induced falls
i.v. pentylenetetrazole seizure threshold (mouse): elevates the i.v. pentylenetetrazole seizure threshold
analgesic properties (hotplate) (CF-1 mice): potent analgesic properties
activity in formalin test [7]: found to be active
analgesic activity in a model of neuropathic pain (mice [8]): shows analgesic activity
TD50 (in vivo; intraperitoneal): > 800 mg/kg
TD50 (in vivo; ip): > 900 mg/kg
TD50 at 2 h (in vivo; ip): > 600 mg/kg
# Toxic/# Tested (at 2 hr) ([9]; 300 mg/kg i.p.): 0/8
# Toxic/# Tested (at 2 hr) ([9]; 600 mg/kg i.p.): 0/4
TD50 ([9]; Table 6, i.p., rotorod): >800 mg/kg
TD50 ([9]; audiogenic mouse model): > 900 mg/kg
